Measurements: PubChem BioAssay AID330 (DTP/NCI, 2004)
Where “and” joins values, the source holds several entries; their conditions need not be identical. Equal entries are not always repeated. Inconclusive results and toxic doses are left out. Rule for the calls: active = survival T/C of 150% or more; inactive = T/C below 125% in these data.

Test system: P388 leukemia ip, CD2F1 mice, survival T/C
Assay: NCI In Vivo Anticancer Drug Screen. Data for tumor model P388 Leukemia (intraperitoneal) in CD2F1 (CDF1) mice
Conditions: endpoint: median survival time, higher = longer survival
Outline: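 Mice carrying the transplanted tumor received test compound or vehicle. Survival was recorded in each group, and the value is the treated-group measurement divided by that of the vehicle-treated control group.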

[1] = dose: 100.0 mg/kg/injection, schedule: Q01DX001 (ip), vehicle: Klucel (hydroxypropylcellulose) (HPC)
[2] = dose: 200.0 mg/kg/injection, schedule: Q01DX001 (ip), vehicle: Klucel (hydroxypropylcellulose) (HPC)
[3] = dose: 50.0 mg/kg/injection, schedule: Q01DX001 (ip), vehicle: Klucel (hydroxypropylcellulose) (HPC)
[4] = dose: 60.0 mg/kg/injection, schedule: Q01DX005 (ip), vehicle: saline with Tween-80
[5] = dose: 120.0 mg/kg/injection, schedule: Q01DX005 (ip), vehicle: saline with Tween-80
[6] = dose: 240.0 mg/kg/injection, schedule: Q01DX005 (ip), vehicle: saline with Tween-80
[7] = dose: 50.0 mg/kg/injection, schedule: Q01DX009 (ip), vehicle: saline with Tween-80
[8] = dose: 100.0 mg/kg/injection, schedule: Q01DX009 (ip), vehicle: saline with Tween-80
[9] = dose: 100.0 mg/kg/injection, schedule: Q04DX003 (ip), vehicle: saline with Tween-80
[10] = dose: 200.0 mg/kg/injection, schedule: Q04DX003 (ip), vehicle: saline with Tween-80
[11] = dose: 400.0 mg/kg/injection, schedule: Q04DX003 (ip), vehicle: saline with Tween-80
[12] = dose: 50.0 mg/kg/injection, schedule: Q01DX005 (ip), vehicle: saline with Tween-80
[13] = dose: 100.0 mg/kg/injection, schedule: Q01DX005 (ip), vehicle: saline with Tween-80
[14] = dose: 50.0 mg/kg/injection, schedule: Q01DX005 (ip), vehicle: saline
[15] = dose: 100.0 mg/kg/injection, schedule: Q01DX005 (ip), vehicle: saline
[16] = dose: 200.0 mg/kg/injection, schedule: Q01DX005 (ip), vehicle: saline with Tween-80

Measured: T/C

COSc1ccccc1
inactive: [1] 96 % of control | [2] 90 % of control | dose: 400.0 mg/kg/injection, schedule: Q01DX001 (ip), vehicle: Klucel (hydroxypropylcellulose) (HPC) 104 % of control

CCOC1=C(C#N)C(=O)NC2OC(CO)C(O)C2O1 (centres undefined)
inactive: dose: 60.0 mg/kg/injection, schedule: Q01DX005 (ip), vehicle: Klucel (hydroxypropylcellulose) (HPC) 104 % of control | dose: 120.0 mg/kg/injection, schedule: Q01DX005 (ip), vehicle: Klucel (hydroxypropylcellulose) (HPC) 104 % of control | dose: 240.0 mg/kg/injection, schedule: Q01DX005 (ip), vehicle: Klucel (hydroxypropylcellulose) (HPC) 106 % of control

COCOC(/C=C/C=C/CCCCOCc1ccccc1)CCC/C=C(\C)CO (centres undefined)
inactive: dose: 50.0 mg/kg/injection, schedule: Q01DX001 (ip), vehicle: saline with Tween-80 104 % of control | dose: 100.0 mg/kg/injection, schedule: Q01DX001 (ip), vehicle: saline with Tween-80 102 % of control | dose: 200.0 mg/kg/injection, schedule: Q01DX001 (ip), vehicle: saline with Tween-80 103 % of control

O=C(c1ccc(-c2ccccc2)cc1)C1C(c2ccccc2)N1C1CCCCC1 (centres undefined)
inactive: dose: 25.0 mg/kg/injection, schedule: Q01DX009 (ip), vehicle: other 88 % of control | dose: 100.0 mg/kg/injection, schedule: Q01DX009 (ip), vehicle: other 91 % of control

C(=N/Nc1ccccc1)/C(=N\Nc1ccccc1)C1CCN(Cc2ccccc2)CC1
inactive: dose: 25.0 mg/kg/injection, schedule: Q01DX001 (ip), vehicle: Klucel (hydroxypropylcellulose) (HPC) 103 % of control | [3] 107 % of control | [1] 100 % of control

Clc1cccc(N=Cc2ccc(C=Nc3cccc(Cl)c3Cl)cc2)c1Cl
inactive: dose: 50.0 mg/kg/injection, schedule: Q01DX009 (ip), vehicle: Klucel (hydroxypropylcellulose) (HPC) 94 % of control | dose: 100.0 mg/kg/injection, schedule: Q01DX009 (ip), vehicle: Klucel (hydroxypropylcellulose) (HPC) 91 % of control | dose: 200.0 mg/kg/injection, schedule: Q01DX009 (ip), vehicle: Klucel (hydroxypropylcellulose) (HPC) 90 % of control

CCC1(CC)C(=O)C(CC)(CC)C1=O
inactive: [4] 104 % of control | [5] 110 % of control | [6] 110 % of control

CC(C)SC(=S)Nc1ccc(Cl)c(C(F)(F)F)c1
inactive: dose: 50.0 mg/kg/injection, schedule: Q01DX009 (ip), vehicle: saline 106 % of control | dose: 100.0 mg/kg/injection, schedule: Q01DX009 (ip), vehicle: saline 105 % of control | dose: 200.0 mg/kg/injection, schedule: Q01DX009 (ip), vehicle: saline 110 % of control

C=C1C(=O)OC2CC3(C)C=CC(=O)C(=C)C3CC12 (centres undefined)
inactive: dose: 12.5 mg/kg/injection, schedule: Q04DX003 (ip), vehicle: Klucel (hydroxypropylcellulose) (HPC) 104 % of control | dose: 25.0 mg/kg/injection, schedule: Q04DX003 (ip), vehicle: Klucel (hydroxypropylcellulose) (HPC) 114 % of control

O=C(Nc1ccccc1Br)c1cccc([N+](=O)[O-])c1O
inactive: [7] 107 % of control | [8] 98 % of control | dose: 200.0 mg/kg/injection, schedule: Q01DX009 (ip), vehicle: saline with Tween-80 97 % of control

COc1ccc2ccccc2c1C1=CC(c2ccccc2)C(C(=O)Cc2ccccc2)C(=O)N1 (centres undefined)
inactive: [9] 101 % of control | [10] 92 % of control | [11] 101 % of control

CC(C)COC(=O)N(CCCl)N=O
inactive: dose: 0.62 mg/kg/injection, schedule: Q01DX009 (ip), vehicle: saline with Tween-80 100 % of control and 111 % of control | dose: 1.25 mg/kg/injection, schedule: Q01DX001 (ip), vehicle: saline with Tween-80 103 % of control | dose: 1.25 mg/kg/injection, schedule: Q01DX009 (ip), vehicle: saline with Tween-80 108 % of control and 116 % of control | dose: 2.5 mg/kg/injection, schedule: Q01DX001 (ip), vehicle: saline with Tween-80 100 % of control | dose: 2.5 mg/kg/injection, schedule: Q01DX009 (ip), vehicle: saline with Tween-80 112 % of control and 115 % of control and 120 % of control | dose: 5.0 mg/kg/injection, schedule: Q01DX001 (ip), vehicle: saline with Tween-80 100 % of control and 112 % of control | dose: 5.0 mg/kg/injection, schedule: Q01DX009 (ip), vehicle: saline with Tween-80 100 % of control and 97 % of control | dose: 10.0 mg/kg/injection, schedule: Q01DX001 (ip), vehicle: saline with Tween-80 90 % of control

COc1ccc2c(c1O)-c1cc(O)cc3c1[C@@H](C2)N(C)CC3
inactive: [12] 104 % of control | [13] 104 % of control

c1ccc(C2SCC3COCN32)cc1 (centres undefined)
inactive: [9] 97 % of control | [10] 101 % of control | [11] 100 % of control

CCOc1ccc(NC(=O)N(c2ccnc3ccccc23)C(C)CCCN(CC)CC)cc1 (centres undefined)
inactive: dose: 50.0 mg/kg/injection, schedule: Q01DX005 (ip), vehicle: Klucel (hydroxypropylcellulose) (HPC) 98 % of control | dose: 100.0 mg/kg/injection, schedule: Q01DX005 (ip), vehicle: Klucel (hydroxypropylcellulose) (HPC) 103 % of control | dose: 200.0 mg/kg/injection, schedule: Q01DX005 (ip), vehicle: Klucel (hydroxypropylcellulose) (HPC) 98 % of control

COC(=O)c1cc(-c2ccc(N)cc2)n2c(N)nnc2n1
inactive: [4] 107 % of control | [5] 91 % of control | [6] 98 % of control

CCN(CC)CCC(O)c1ccc(Cl)c2ccccc12 (centres undefined)
inactive: [14] 106 % of control | [15] 101 % of control

CC(=O)/C(=C/c1ccc(OC2OC(CO)C(O)C(O)C2O)cc1)C(=O)CCN(C)C (centres undefined)
inactive: [14] 107 % of control | [15] 93 % of control | dose: 200.0 mg/kg/injection, schedule: Q01DX005 (ip), vehicle: saline 100 % of control

Nn1cnnc1SCc1ccccc1
inactive: dose: 100.0 mg/kg/injection, schedule: Q01DX001 (ip), vehicle: other 100 % of control | dose: 200.0 mg/kg/injection, schedule: Q01DX001 (ip), vehicle: other 100 % of control | dose: 400.0 mg/kg/injection, schedule: Q01DX001 (ip), vehicle: other 100 % of control

CC(C)(C)OC(=O)NC(CCCCNC=O)C(=O)O (centres undefined)
inactive: [12] 95 % of control | [13] 96 % of control | [16] 104 % of control

O=C(Nc1cccc(C(F)(F)F)c1)C12CC3CC(CC(C3)C1)C2
inactive: dose: 6.25 mg/kg/injection, schedule: Q01DX009 (ip), vehicle: saline with Tween-80 98 % of control | dose: 12.5 mg/kg/injection, schedule: Q01DX009 (ip), vehicle: saline with Tween-80 100 % of control | dose: 25.0 mg/kg/injection, schedule: Q01DX009 (ip), vehicle: saline with Tween-80 91 % of control | [7] 90 % of control | [8] 88 % of control

[Ni+2].[S-]CC[S-]
inactive: [9] 92 % of control | [10] 108 % of control

Nc1nc(N)c2c(n1)NCN(O)C2
inactive: [12] 97 % of control | [13] 99 % of control | [16] 100 % of control

CN(CCc1nnnn1C)/N=C\C=N\N(C)CCc1nnnn1C
inactive: [3] 112 % of control | [1] 112 % of control | [2] 97 % of control
